Experiments:
[1] = background statement; cited from earlier work
[2] = Storage trials: production of p-chloroaniline in aqueous 20 wt. % solutions and in powdered mixtures (FIG. 1, FIG. 2); assay type: physicochemical; conditions: aqueous solution stored at constant 40° C.
From the text: The composition and appearance of gluconate solutions are subject to the requirements of the European Pharmacopoeia and the American Pharmacopoeia. One of the purity requirements is a concentration of p-chloroaniline limited to 500 ppm. In a reaction which is the reverse of forming the chlorhexidine base from hexamethylenebicyanoguanidine and p-chloroaniline, p-chloroaniline can be reversibly eliminated from these solutions on dissolving the base in D(+) glucono-6-lactone, the internal ester of D(+)-gluconic acid, wherein the solutions discolor and become increasingly yellow to brown. Decomposition of chlorhexidine solutions depends on the pH of the solution and in particular on the storage temperature. Tests show (FIG. 1), that the permissible p-chloroaniline values are exceeded after about one month when stored at a constant temperature of 40° C. Solutions of CHD-gluconate which are stable over the long-term have not hitherto been disclosed. The use of these solutions in regions with a tropical climate is therefore a problem which has not hitherto been resolved satisfactorily. Therefore, there is a need for chlorhexidine salt solutions which tend to decompose to only a small extent when used under extreme climatic conditions, in particular at high temperatures.
The problem of long-term p-chloroaniline production cannot be solved by the invention of new anions. […]

[3] = Light sensitivity and stability compared with the gluconate; assay type: physicochemical

Compound: [H]/N=C(\N/C(=N/[H])NCCCCCCNC(=N)NC(=N)Nc1ccc(Cl)cc1)Nc1ccc(Cl)cc1 [Chlorhexidine, 1,1′-hexamethylene-bis-[5,4-chlorophenyl]-biguanide]
- solubility in water [1]: very low solubility in water

Compound: N=C(NCCCCCCNC(=N)NC(=N)Nc1ccc(Cl)cc1)NC(=N)Nc1ccc(Cl)cc1.O=C(O)[C@H](O)[C@@H](O)[C@H](O)[C@H](O)CO.O=C(O)[C@H](O)[C@@H](O)[C@H](O)[C@H](O)CO [Chlorhexidine digluconate]
- time after which permissible p-chloroaniline values (500 ppm) are exceeded [2]: about one

Compound: chlorhexidine ascorbate
- light sensitivity relative to the gluconate [3]: more light sensitive
- stability relative to the gluconate [3]: more unstable than the gluconate

— US6500466B2, “Chlorhexidine formulations, new chlorhexidine salts, solutions containing these and their use” (Degussa AG, priority 1998, dated 2002)
